Results reported in patent publication US7408022B2, “Composition and method for increasing apoptosis in cancer cells” (Celtek Bioscience, LLC, priority 2004, dated 2008).
Peptide text beside a SMILES is read from it.

Assays:
DU145 cells [1] = experiment: Flow cytometric analysis of annexin V/PI stained cells; type: cell-based, Human; settings: for induction of apoptosis by co-treatment with cisplatin (flow cytometry): CB5005 30 μM, CB5003 72 μM, CB5002 72 μM, cisplatin 5 μg/ml
Method: PCA cells were grown on 60-mm dishes to a confluence of 50-60%. These cells were incubated with different concentrations of peptides for 30 min at 37° C. followed by the treatment with TNF-α (10 ng/ml), cisplatin (2-30 μg/ml), etoposide (2-20 μg/ml) or diluent for an additional 21 h at 37° C. Phosphatidylserine exposure on apoptotic cells was measured by their ability to bind Annexin V. Specifically, cells were harvested by trypsinization. The trypsinized cells, media and PBS washes were combined and cells collected by centrifugation. […] Stained cells were analyzed by flow cytometry. A minimum 20,000 events for each sample was measured.

DU145 cells [2] = experiment: TUNEL assay; type: cell-based, Human; settings: peptide 30 min, then cisplatin 5 μg/ml 16 h; CB5003 40 μM, CB5002 72 μM, CB5007 30 μM
Method: DU145 cells were grown on 8-well chamber slides to a confluence of 70-80%. The cells were then incubated with different concentrations of peptides or diluent for 30 min at 37° C. followed by the treatment with cisplatin (5 μg/ml) or diluent for an additional 16 h. The cells were air-dried and fixed in 4% paraformaldehyde at room temperature for 1 h. The cells were then washed with PBS and permeabilized with permeabilization solution (0.1% Triton X-100 in 0.1% sodium citrate) for 2 min on ice. Apoptosis was detected using TUNEL method “in situ cell death detection POD” according to the manufacturer's instructions (Roche, Indianapolis, Ind.). The fluorescein-labeled DNA strand breaks due to apoptosis were visualized under light microscope (Microstar IV, Reichard, Buffalo, N.Y.) by using anti-fluorescein antibody conjugated POD (peroxidase) at ×40 magnification. The images were analyzed using a Pixera digital camera.

DU145 cells [3] = experiment: Indirect immunofluorescence assay for peptide cellular import; type: cell-based, Human; settings: different concentrations of peptides, 1 h at 37° C.
Method: DU145 cells were grown on 8-well chamber slides (Nunc, Naperville, Ill.) to a confluence of 80%. These cells were then incubated with diluent or different concentrations of peptides in RPMI without serum for 1 h at 37° C. The cells were washed three times with cold PBS to remove the extracellular peptides and then fixed with 3.5% paraformaldehyde solution in PBS at 4° C. for 20 min. The fixed cells were washed three times with cold PBS and treated with 0.25% Triton X-100 for 10 min. The washed cells were then incubated with anti-peptide IgG in PBS for 1 h. After three 5 min washings with PBS, the intracellular peptides (via peptide-antibody complexes) were subsequently detected with FITC-labeled goat anti-rabbit IgG (Pierce, Rockford, Ill.) after 1 h incubation. Cover slips with stained cells were mounted in Poly/Mount (Polysciences, Warrington, Pa.) and analyzed with Microstar IV (Reichard, Buffalo, N.Y.) using a 100× oil immersion lens. The color images were analyzed using a Pixera digital camera and stored in JPG format. The same assay was also utilized for determining peptide cellular import in other cell lines, including PC3, LNCaP, and neuroblastoma N2a cells.

[4] = test system: NF-κB nuclear translocation in LNCaP cells; experiment: Western blot analysis of NF-κB p50 protein in nuclear extracts; type: cell-based, Human; settings: peptide 30 min, then TNF-α 10 ng/ml 1 h
Method: (§1) PCA cells were grown on 60-mm dishes to a confluence of 70-80%. The cells were incubated with different concentrations of peptides for 30 min at 37° C., followed by treatment with TNF-α (10 ng/ml) for an additional 1 h at 37° C., as indicated, or incubated with peptide alone for 16 hours. After the treatment, cells were washed with ice-cold PBS and lysed in 500 μl of buffer A (10 mM HEPES, pH 7.9, 10 mM KCl, 0.1 mM EDTA, 0.1 mM EGTA, 0.4% Nonidet P-40, 1 mM DTT, 0.5 mM PMSF and 1 μg/ml each of leupeptin, aprotinin, pepstatin, chymostatin and antipain) on ice for 10 min. Nuclei were pelleted by centrifugation at high speed and washed with 500 μl of buffer A. Nuclei were then resuspended in 40 μl of buffer B (20 mM HEPES, pH 7.9, 400 mM NaCl, 1 mM EDTA, 1 mM EGTA, 1 mM DTT, 1 mM PMSF and 1 μg/ml each of leupeptin, aprotinin, pepstatin, chymostatin and antipain). The protein concentration of nuclear extract was determined using Pierce BCA protein assay and equalized among samples using buffer B.
(§2) Equal amounts of proteins were heat-treated in 2×SDS sample loading buffer at 100° C. for 5 minutes and fractionated by 10% SDS polyacrylamide electrophoresis. The proteins were transferred to nitrocellulose paper. After blocking with 5% nonfat milk in TBS (10 mM Tris-HCl, pH 7.6, 70 mM NaCl and 0.05% Tween 20) for 30 minutes, nuclear NFκB p50 was detected by using an anti-p50 IgG antibody (1:5000), (Upstate, Lake Placid, N.Y.). The primary antibody was visualized with horseradish peroxidase-coupled secondary antibody by using ECL western blotting system as described in manufacturer's protocol (Pierce, Rockford, Ill.).

[5] = test system: NF-κB nuclear translocation in DU145 cells; experiment: as above; type: cell-based, Human; settings: CB5005 30 μM, CB5003 90 μM, CB5007 30 μM for 30 min, then TNF-α 10 ng/ml 1 h
Method: as §1, §2

[6] = Quantitative indirect immunofluorescence assay of peptide cellular import (96-well plates); type: cell-based; settings: from time-dependent fluorescence accumulation, 1-20 h
Text: This indirect immunofluoresence assay was also utilized to quantitate peptide cellular import. Briefly, cells grown in 96-well plates will be treated with peptides for different time periods, and then subjected to an indirect immunofluorescence assay using anti-peptide antibody and FITC-labeled anti-rabbit antibody as described above. Cells were then lysed with 10% SDS and the fluorescence in the soluble cell solutions was quantified by a Cytofluor™ 2300 reader (Millipore) at 485/560 nm. The fluorescence readings were calculated by subtracting […] of peptide-untreated sample. The data were expressed as mean ±SEM of three independent experiments performed in quintuplicate samples. The kinetics of imported CB5005 peptide (SEQ ID NO: 4) was studied by using this quantitative.

neuroblastoma N2a cells = experiment: In vitro cytotoxicity assay (MTS); type: cell-based; settings: 24 h at 37° C.
Method: (§3) LNCaP, DU145, PC3, or neuroblastoma N2a cells were grown in 96-well plates to a confluence of 60%. The treatments with different concentrations of peptide were performs in quadruplicates in a total volume of 100 μl in RPMI without serum for 24 h at 37° C. The cells were then washed and incubated at 37° C. with 100 μl phenol-red free RPMI containing 20 μl of the CellTiter 96 AQueous Solution reagent (Promega, Madison, Wis.) for 1 h. The absorbency in each well was recorded at 490 nm using a Microplate Autoreader EL 309 (Bio-Tek Instruments, Winooski, Vt.). The absorbency reflects directly the number of viable cells. Blanks were subtracted from all data. The data were then analyzed using Prism software (GraphPad Software Inc., San Diego, Calif.) and expressed as a mean ±SE of three independent experiments. Statistical significance was performed by one way ANOVA and consider significant if p<0.05.

PC3 cells = experiment: In vitro cytotoxicity assay (MTS); type: cell-based, Human; settings: PC3, 30 μM, 24 h
Method: as §3

DU145 cells [7] = experiment: In vitro cytotoxicity assay (MTS); type: cell-based, Human; settings: DU145, 30 μM, 24 h
Method: as §3

LNCaP cells = experiment: In vitro cytotoxicity assay (MTS); type: cell-based, Human; settings: 24 h at 37° C.
Method: as §3

DU145 cells [8] = experiment: Annexin V/PI fluorescence microscopy apoptosis assay; type: cell-based, Human; settings: cisplatin 5 μg/ml alone, 5 h
Method: DU145 cells were grown on 4-well chamber slides to a confluence of 70-80%. Cells were then treated with CB5005 peptide (SEQ ID NO: 4) (30 μM) or diluent for 30 min at 37° C. followed by cisplatin (5 μg/ml) for an additional 5 h. […] The chamber slides were mounted in Poly/mount (Polysciences, Warrington, Pa.) and analyzed with a fluorescence microscope (Microstar IV, Reichard, Buffalo, N.Y.) using ×100 oil immersion lens. The color images were analyzed by a Pixera digital camera and stored in JPG format.

In the case of “CB5002: control peptide with a mutant, non-functional CPS located N-terminal to the NLS (LALLAPVQRKRQKLMP)”, the “induction of apoptosis by co-treatment with cisplatin (flow cytometry)” value (DU145 cells [1]; 21 h) is reported as “did not show significant effect”, the “sensitizing activity to cisplatin-induced apoptosis (TUNEL)” value (“sensitizing activity” for short) (DU145 cells [2]) is reported as “not” and the cellular import activity (DU145 cells [3]) is reported as “not active”.

In the case of “CB5003: analogous peptide possessing only a portion of the CPS (SEQ ID NO: 1) N-terminal to the NF-κB p50 NLS (LALALAVQRKRQKLMP)”, the “induction of apoptosis by co-treatment with cisplatin (flow cytometry)” value (DU145 cells [1]; 21 h) is reported as “active but to a much less extent”, the “synergistic activity in enhancing the apoptosis induced by cisplatin (dependence on concentration)” value (DU145 cells [1]; DU145, flow cytometry) is reported as “concentration-dependent” and the “TNF-α-induced NF-κB nuclear translocation” value [4] is reported as “inhibited”. For the same compound, the “TNF-α-induced NF-κB nuclear translocation” value [5] was “inhibited”, the “sensitizing activity” value (DU145 cells [2]) was “active, although at a much lower level” and the cellular import activity (DU145 cells [3]) was “much weaker import activity”.

With `CSCC[C@H](NC(=O)[C@H](CC(C)C)NC(=O)[C@H](CCCCN)NC(=O)[C@H](CCC(N)=O)NC(=O)[C@H](CCCNC(=N)N)NC(=O)[C@H](CCCCN)NC(=O)[C@H](CCCNC(=N)N)NC(=O)[C@H](CCC(N)=O)NC(=O)[C@@H](NC(=O)[C@H](C)NC(=O)[C@H](CC(C)C)NC(=O)[C@H](C)NC(=O)[C@H](CC(C)C)NC(=O)[C@H](C)NC(=O)[C@H](CC(C)C)NC(=O)[C@H](C)NC(=O)[C@H](CC(C)C)NC(=O)[C@H](CCCCN)NC(=O)[C@H](CC(C)C)NC(=O)[C@@H](N)CCCCN)C(C)C)C(=O)N1CCC[C@H]1C(=O)O` [CB5005] (H-KLKLALALALAVQRKRQKLMP-OH; N-terminus and C-terminus assumed) the “stability in intracellular compartments” value [6] was “relatively stability”, the “cytotoxicity (MTS)” value (neuroblastoma N2a cells) was “did not result in toxicity” and the “cytotoxicity (MTS), peptide-untreated vs treated samples” value (PC3 cells) was “Statistical significance (p<0.05)”. The “cytotoxicity (MTS), peptide-untreated vs treated samples” value (DU145 cells [7]) was “Statistical significance (p<0.05)” and the “cytotoxicity (MTS)” value (LNCaP cells) was “not toxic”.

With “CB5007: control peptide corresponding to CB5005 except that two basic residues in the NF-kB p50 NLS are mutated (KR-NG) (KLKLALALALAVQRNGQKLMP)” the “TNF-α-induced NF-κB nuclear translocation” value [4] was “did not have an inhibitory effect”, the “TNF-α-induced NF-κB nuclear translocation” value [5] was “did not have an inhibitory effect” and the “sensitizing activity” value (DU145 cells [2]) was “not”.

With `N.N.[Cl][Pt][Cl]` [cisplatin, reference compound] the “induction of apoptosis (flow cytometry)” value (DU145 cells [1]; cisplatin 5 μg/ml alone, 21 h) was “ineffective” and the “induction of apoptosis (annexin V-FITC staining)” value (DU145 cells [8]) was “ineffective”.
